Test results reported in patent US20220370471A1, “COMPOSITION AND METHOD FOR TREATMENT OF HIPPOCAMPAL SYNAPSE DYSFUNCTION AND COGNITIVE DEFICITS IN ALZHEIMER'S DISEASE” (BOARD OF REGENTS, THE UNIVERSITY OF TEXAS SYSTEM, priority 2019, published 2022).
Square brackets hold non-standard residues; d marks the D form. Ends that are not written are not given here. Peptide text beside a SMILES is read from it. d2Nal = N[C@H](Cc1ccc2ccccc2c1)C(=O)O; Aib = CC(C)(N)C(=O)O

What was measured:
Drd1 [1] = biological target: T1, Drd1 (Mus musculus, UniProt Q61616); assay: Duolink PLA and Co-IP of oligomeric Aβ42 with Drd1 in HEK 293T cells; type: binding; settings: oligomeric Aβ42 24 hours, Drd1-expressing HEK 293T cells
T1 construct: expressed in transfected cells; host or cells: HEK 293T

Ghsr1α/Drd1 = biological target: T2, Ghsr1α/Drd1 (Mus musculus, UniProt Q99P50); assay: Duolink PLA of Ghsr1α/Drd1 interaction in co-expressing HEK 293T cells; type: cell-based; settings: oligomeric Aβ42 5 μM, 24 hours
T2 construct: Mouse full length Ghsr1α cDNA (NCBI Gene ID: 208188) was purchased from OriGene (MR226073); expressed in transfected cells; host or cells: HEK 293T
Protocol: GHSR1α forms a complex with DRD1 to regulate DRD 1-mediated hippocampal synaptic strength and memory (8). In order to fully evaluate the influence of Aβ on GHSR1α, the inventor next examined whether oligomeric Aβ42 affects heterodimerization of GHSR1α and DRD1 by using HEK 293T cells co-expressing Ghsr1α and Drd1 (FIG. 2c, FIG. S2). After an incubation with oligomeric Aβ42 (5 μM) for 24 hours, the interaction between Ghsr1α and Drd1 determined by Duolink PLA was suppressed (FIGS. 2d-e), indicating the inhibitory effect of oligomeric Aβ42 on Ghsr1α/Drd1 heterodimerization. To test whether GHSR1α/DRD1 interaction was modulated in a clinical setting, the inventor examined hippocampal tissues from 5 patients with AD and compared with tissues from 5 healthy controls. […] Decreased Ghsr1α/Drd1 heterodimerization also occurred in 5×FAD mice, and this effect was exacerbated with age (FIGS. 2h-i). […] FlAsH-based FRET assay was performed to examine the effect of oligomeric Aβ42 ([…]) on agonist (SKF81297 100 μM)-induced Drd1 activity in HEK 293T cells expressing Drd1 with FlAsH in the intercellular loop 3 and ECFP in the C-terminus (Drd1^FlAsH/ECFP). […]
(§1) Duolink In Situ Proximity Ligation Assay (PLA). […] NIH Image J was used for PLA signal quantification. […]

Ghsr1α Δaa42-116 = biological target: T3, Ghsr1α Δaa42-116 (Mus musculus, UniProt Q99P50, DEL42-116); assay: Duolink PLA and Co-IP of oligomeric Aβ42 with Ghsr1α mutants in HEK 293T cells; type: binding; settings: 5 μM oligomeric Aβ42, 24 hours; Duolink PLA, validated by Co-IP
T3 construct: Mouse full length Ghsr1α cDNA (NCBI Gene ID: 208188) was purchased from OriGene (MR226073); expressed in transfected cells; host or cells: HEK 293T
From the text: Aβ3 physically interacts with GHSR1α. To determine whether GHSR1α expression is changed in the hippocampus in AD, the inventor performed immunohistochemical and membrane blotting assays in post-mortem hippocampal tissues from 4 subjects with AD and 4 non-demented healthy donors (non-AD). He observed increased GHSR1α expression in hippocampal tissues from patients with AD (FIGS. S1a-b and Table S1), which positively correlated with the amounts of soluble Aβ40 and Aβ42 in hippocampi (FIGS. S1c-d). […] Because Aβ binds to multiple proteins (14-16), the inventor next explored whether GHSR1α is an Aβ binding target. In order to examine the interaction between GHSR1α and AP, he labeled GHSR1α and Aβ with their specific antibodies and ran Duolink proximity ligation assay (PLA), which is a sensitive method to visualize and quantify direct protein interactions in situ (17), on hippocampal tissues from 4 subjects with AD and 4 healthy donors. The inventor observed Aβ3/GHSR1α complexes in hippocampi from patients with AD (FIGS. 1a-b). […] HEK 293T cells expressing full-length mouse Ghsr1α or its mutants were exposed to 5 μM oligomeric Aβ42 for 24 hours followed by Duolink PLA to detect Aβ/Ghsr1α complexes. […]
as §1

Drd1 [2] = biological target: T4, Drd1 (Mus musculus, UniProt Q61616, INS245CCPGCC); assay: FlAsH-based FRET assay of Drd1 activity in HEK 293T cells; type: cell-based; settings: oligomeric Aβ42 2 μM preincubation; SKF81297 100 μM
T4 construct: expressed in transfected cells; host or cells: HEK 293T
Protocol: GHSR1α forms a complex with DRD1 to regulate DRD 1-mediated hippocampal synaptic strength and memory (8). In order to fully evaluate the influence of Aβ on GHSR1α, the inventor next examined whether oligomeric Aβ42 affects heterodimerization of GHSR1α and DRD1 by using HEK 293T cells co-expressing Ghsr1α and Drd1 (FIG. 2c, FIG. S2). After an incubation with oligomeric Aβ42 (5 μM) for 24 hours, the interaction between Ghsr1α and Drd1 determined by Duolink PLA was suppressed (FIGS. 2d-e), indicating the inhibitory effect of oligomeric Aβ42 on Ghsr1α/Drd1 heterodimerization. To test whether GHSR1α/DRD1 interaction was modulated in a clinical setting, the inventor examined hippocampal tissues from 5 patients with AD and compared with tissues from 5 healthy controls. […] Decreased Ghsr1α/Drd1 heterodimerization also occurred in 5×FAD mice, and this effect was exacerbated with age (FIGS. 2h-i). […]
FlAsH-based FRET. […] Fluorescence signals were monitored on microplate reader (BioTek Cytation 5) before and after the treatments. […] Area scanning read mode was used to correct artificial inaccuracies. The FRET ratio (FFlAsH/FECFP) was calculated according to equation as previously reported (69): […]

Ghsr1α = biological target: T5, Ghsr1α (Mus musculus, UniProt Q99P50, INS247CCPGCC); assay: FlAsH-based FRET assay of Ghsr1α activity in HEK 293T cells; type: cell-based; settings: oligomeric Aβ42 2 μM, 5 minutes pre-incubation
T5 construct: Mouse full length Ghsr1α cDNA (NCBI Gene ID: 208188) was purchased from OriGene (MR226073); expressed in transfected cells; host or cells: HEK 293T
From the text: FlAsH-based FRET was created by structural dynamics of Ghsr1α with FlAsH in the intercellular loop 3 and enhanced cyan fluorescent protein (ECFP) in the C-terminus (Ghsr1α^FlAsH/ECFP).
FlAsH-based FRET. […] The CCPGCC motif which has higher binding affinity for FlAsH was inserted in the third intracellular loop between Va1247 and Gly248 of Ghsr1α cDNA or between Thr245 and Gly246 of Drd1 cDNA. […] Fluorescence signals were monitored on microplate reader (BioTek Cytation 5) before and after the treatments. […] Area scanning read mode was used to correct artificial inaccuracies. The FRET ratio (FFlAsH/FECFP) was calculated according to equation as previously reported (69):
The terms a and b are correction factors for the two leakages mentioned above. a is the ratio of the direct emission of donor, ECFP at 535 nm, to its emission at 475 nm when excited at 425 nm which was calculated with cells transfected with pcDNA3-Ghsr1α^FlAsH/ECFP or pcDNA3-Drd1^FlAsH/ECFP only. b is the ratio of the direct emission of FlAsH at 535 nm when excited at 425 nm to its emission at 535 nm when excited at 500 nm which was calculated with FlAsH labeled untransfected cells.

DRD1 [3] = biological target: DRD1 (Homo sapiens, UniProt P21728); settings: cited from earlier work
5×FAD mice = settings: systemic ghrelin treatment; cited from earlier work
hippocampal neurons = assay: Synaptic density (vGLUT1/PSD95) in cultured hippocampal neurons; type: cell-based, mouse; settings: for Aβ-induced synaptic loss / synaptic density / synaptogenic effect, agonist alone: 1 μM ipamorelin or capromorelin; for Aβ-induced synaptic loss / synaptic density: alone or + 2 μM SKF81297
Protocol: Immunocytochemistry. […] NIS element software was used for image analysis. “Objective Count” dialog was used for intensity measurement. […] The overlapped dots represent synapses.
Primary hippocampal neuron culture. Hippocampal neuron cultures were prepared as previously described (15). In brief, mouse hippocampi were dissected from postnatal day 0-1 pups in cold HBSS. Cells were dissociated by using 0.025% trypsin at 37° C. for 15 minutes, followed by 10 times homogenization in ice cold DMEM. Dissociated cells were then passed through a 100 μm cell strainer (Corning) and centrifuged for 5 minutes at 210×g. The pellet was gently resuspended in neuron culture medium (Neurobasal A with 2% B27 supplement, 0.5 mM L-glutamine, Invitrogen) and plated on poly-D-lysine (Sigma-Aldrich) coated Lab-Tek chamber slides (Nunc, 177445) with appropriate densities.
Agonist treatment on primary cultured neurons. At 14 days in vitro (DIV14) hippocampal neurons were exposed to the synthetic growth hormone secretagogue receptor agonist MK0677 (Tocris, #5272, 1.5 μM) the dopamine D1-like receptor agonist SKF81297 (Sigma-Aldrich, #S143, 2 μM) or a mixture of MK0677 and SKF81297 for 5 minutes. The exposure was followed by immunostaining to examine the effects of Ghsr1α/Drd1 co-activation on Aβ induced synaptic loss or Ghsr1α/Drd1, Aβ/Ghsr1α interaction as described in previous sections.

Ghsr1α/Drd1 complex = biological target: T6, Ghsr1α/Drd1 complex (Mus musculus, UniProt Q61616+Q99P50); assay: Duolink PLA of Ghsr1α/Drd1 complex in cultured hippocampal neurons; type: cell-based; settings: oligomeric Aβ42 1 μM, 24 hours; 1.5 μM MK0677, 2 μM SKF81297, or in combination
T6 construct: endogenous in cells; host or cells: primary mouse hippocampal neurons (P0-1, DIV14)
From the text: (§2) Duolink In Situ Proximity Ligation Assay (PLA). […] PLA analysis was referred to previous report (66 67). NIH Image J was used for PLA signal quantification.
(§3) Agonist treatment on primary cultured neurons. […] The exposure was followed by immunostaining to examine the effects of Ghsr1α/Drd1 co-activation on Aβ induced synaptic loss or Ghsr1α/Drd1, Aβ/Ghsr1α interaction as described in previous sections.

[4] = test system: hippocampal CA3-CA1 pathway; assay: Long-term potentiation (fEPSP) in hippocampal slices; settings: MK0677 1.5 μM, SKF81297 2 μM, alone or in combination
Protocol: For electrophysiological experiments, mice were anesthetized with isoflurane and decapitated. […] Slices were allowed to rest for 30 minutes after being transferred to the recording chamber before recordings began. Recordings of local field potentials (LFPs) were performed on an Axon Multiclamp 700B amplifier (Molecular Devices), and data were acquired and analyzed using AxoGraph X (AxoGraph Scientific). A tungsten concentric bipolar microelectrode (World Precision Instruments), and a recording glass electrode (1.5 MS2) filled with recording ACSF, were placed approximately 200 μm apart in the Schaffer collateral-commissural pathway in the CA1 region of the hippocampus. Pulses were delivered in 30 seconds intervals. Before baseline recordings commenced, input-output curves were taken, using 25-150 μA stimulation currents in 25 μA steps. Three sweeps were sampled at each stimulation intensity and averaged to represent the voltage response at each step. Recordings of baseline responses lasted for at least 40 minutes. Stimulation intensity was set to approximately 40% of the minimum intensity required to evoke the maximum response (based on the input-output curve). The stimulation intensity was kept consistent throughout the duration of the experiment. […] LTP was induced using a theta burst stimulation (TBS) protocol consisting of 10 bursts (5 pulses at 100 Hz) repeated at 5 Hz delivered two times 30 seconds apart. After LTP induction, LFPs were recorded for an additional 60 minutes. The slope of the field excitatory postsynaptic potential (fEPSP) was measured in Axograph scientific software and sweeps were averaged in bins of 5 for both the baseline and post LTP induction periods. Changes in LFPs are expressed as percentage change from the averaged baseline values.

Aβ/Ghsr1α complex = biological target: T7, Aβ/Ghsr1α complex (Mus musculus, UniProt Q99P50); assay: Duolink PLA of Aβ/Ghsr1α complex in cultured hippocampal neurons; type: cell-based; settings: oligomeric Aβ42 1 μM, 24 hours; 1.5 μM MK0677, 2 μM SKF81297, or in combination
T7 construct: endogenous in cells; host or cells: primary mouse hippocampal neurons; Aβ42 peptide purchased (GenicBio, A-43-T-1000)
From the text: as §2, §3

T5 sequence (Q99P50 with tags, fused parts or gaps INS247CCPGCC): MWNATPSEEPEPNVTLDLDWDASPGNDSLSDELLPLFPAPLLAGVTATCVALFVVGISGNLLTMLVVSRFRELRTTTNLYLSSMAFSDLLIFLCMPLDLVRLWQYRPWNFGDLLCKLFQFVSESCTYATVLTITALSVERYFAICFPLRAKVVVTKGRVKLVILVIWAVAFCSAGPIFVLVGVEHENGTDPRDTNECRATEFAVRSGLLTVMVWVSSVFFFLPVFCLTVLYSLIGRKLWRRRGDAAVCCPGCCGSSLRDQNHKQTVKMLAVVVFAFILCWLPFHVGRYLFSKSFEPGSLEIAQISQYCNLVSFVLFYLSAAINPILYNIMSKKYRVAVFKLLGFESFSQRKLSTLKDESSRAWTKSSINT
Chain of DRD1 (P21728 whole entry, species assumed): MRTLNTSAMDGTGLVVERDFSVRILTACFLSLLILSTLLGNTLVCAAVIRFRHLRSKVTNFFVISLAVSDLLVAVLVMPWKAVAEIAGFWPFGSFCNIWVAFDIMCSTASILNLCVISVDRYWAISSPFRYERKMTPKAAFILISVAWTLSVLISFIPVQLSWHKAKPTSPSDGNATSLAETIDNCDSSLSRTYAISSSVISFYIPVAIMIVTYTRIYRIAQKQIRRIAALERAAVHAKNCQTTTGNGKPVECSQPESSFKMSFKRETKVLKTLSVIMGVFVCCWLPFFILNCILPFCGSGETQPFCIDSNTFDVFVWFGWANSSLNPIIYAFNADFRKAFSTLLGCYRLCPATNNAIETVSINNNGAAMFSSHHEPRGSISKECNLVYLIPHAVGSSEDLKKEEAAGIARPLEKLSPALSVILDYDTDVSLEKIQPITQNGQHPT
T1 sequence (Q61616 whole entry): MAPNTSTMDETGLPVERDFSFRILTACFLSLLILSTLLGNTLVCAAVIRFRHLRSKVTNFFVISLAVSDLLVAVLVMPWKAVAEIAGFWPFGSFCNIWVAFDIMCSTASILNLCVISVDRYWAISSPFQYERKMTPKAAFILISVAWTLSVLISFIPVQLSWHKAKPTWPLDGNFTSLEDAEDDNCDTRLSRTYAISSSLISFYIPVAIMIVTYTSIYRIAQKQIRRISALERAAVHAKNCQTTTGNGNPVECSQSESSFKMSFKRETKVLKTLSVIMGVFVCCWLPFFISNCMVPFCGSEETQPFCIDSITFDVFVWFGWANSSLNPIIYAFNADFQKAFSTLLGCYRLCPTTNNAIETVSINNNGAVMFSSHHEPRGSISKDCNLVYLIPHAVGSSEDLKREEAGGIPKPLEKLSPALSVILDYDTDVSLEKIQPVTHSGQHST
T3 sequence (Q99P50 with tags, fused parts or gaps DEL42-116): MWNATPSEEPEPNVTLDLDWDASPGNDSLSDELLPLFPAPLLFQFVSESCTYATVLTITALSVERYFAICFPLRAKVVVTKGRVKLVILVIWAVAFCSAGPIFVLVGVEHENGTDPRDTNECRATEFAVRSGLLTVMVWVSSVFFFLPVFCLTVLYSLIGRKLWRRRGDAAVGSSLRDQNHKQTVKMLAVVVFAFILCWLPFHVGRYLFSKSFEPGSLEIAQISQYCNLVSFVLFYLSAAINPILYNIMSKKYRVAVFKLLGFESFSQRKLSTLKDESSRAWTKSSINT
T4 sequence (Q61616 with tags, fused parts or gaps INS245CCPGCC): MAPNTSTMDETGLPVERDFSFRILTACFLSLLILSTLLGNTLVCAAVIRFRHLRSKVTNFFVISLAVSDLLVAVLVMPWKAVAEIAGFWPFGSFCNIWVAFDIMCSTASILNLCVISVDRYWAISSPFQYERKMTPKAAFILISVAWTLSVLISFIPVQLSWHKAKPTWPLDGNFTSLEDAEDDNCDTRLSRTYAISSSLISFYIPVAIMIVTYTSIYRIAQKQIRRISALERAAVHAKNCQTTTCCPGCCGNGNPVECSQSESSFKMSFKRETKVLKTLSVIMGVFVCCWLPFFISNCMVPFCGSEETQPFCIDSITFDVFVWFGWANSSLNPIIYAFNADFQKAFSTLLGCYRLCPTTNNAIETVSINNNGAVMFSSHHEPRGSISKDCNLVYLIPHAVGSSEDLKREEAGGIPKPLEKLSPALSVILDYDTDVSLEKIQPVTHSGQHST
T2 sequence (Q99P50 whole entry): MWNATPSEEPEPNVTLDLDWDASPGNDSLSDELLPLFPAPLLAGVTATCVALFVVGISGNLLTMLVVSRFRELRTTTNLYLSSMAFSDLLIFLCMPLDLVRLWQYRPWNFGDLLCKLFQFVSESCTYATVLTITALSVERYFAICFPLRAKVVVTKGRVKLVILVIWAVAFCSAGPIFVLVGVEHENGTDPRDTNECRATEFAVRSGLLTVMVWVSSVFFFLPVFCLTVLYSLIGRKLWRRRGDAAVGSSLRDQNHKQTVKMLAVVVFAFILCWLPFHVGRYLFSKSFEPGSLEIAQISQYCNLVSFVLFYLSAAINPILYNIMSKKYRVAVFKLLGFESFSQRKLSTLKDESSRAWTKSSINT
T7 sequence (Q99P50 whole entry): as above
T7 sequence (Q61616 whole entry, further chain): as the sequence (Q61616 whole entry) above
T6 sequence (Q99P50 whole entry): as the sequence (Q99P50 whole entry) above
T6 sequence (Q61616 whole entry): as the sequence (Q61616 whole entry) above

## oligomeric Aβ42: Aβ42 peptide (GenicBio) incubated at 4° C. for 24 hours to prepare oligomers
Drd1 [1]
  Aβ/DRD1 complexes: not observed
Ghsr1α/Drd1
  interaction between Ghsr1α and Drd1 (Duolink PLA): suppressed
Ghsr1α Δaa42-116
  interaction with Ghsr1α mutant devoid of aa42-116: no interaction
Drd1 [2]
  impact on agonist-induced Drd1 activation: no impact
Ghsr1α; no agonist
  impact on FRET ratio in vehicle-treated cells: no impact
Ghsr1α; then MK0677 50 μM
  effect on agonist-induced Ghsr1α activation: suppressed

## Oc1cc2c(cc1O)[C@H]1c3ccccc3CN[C@@H]1CC2 (racemic) [dihydrexidine]
DRD1 [3]
  binding to DRD1 / DRD2: much weaker binding affinity

## ghrelin: the natural ligand of GHSR1α (GSSFLSPEHQRVQQRKESKKPPAKLQPR; ends and bridges not checked; UniProt Q9UBU3 24-51, looked up)
5×FAD mice
  hippocampal Aβ load in 5×FAD mice: did not affect hippocampal Aβ load

## Oc1cc2c(cc1O)C(c1ccccc1)CNCC2 (stereo not shown) [SKF38393]
DRD1 [3]
  binding to DRD1 / DRD2: selectively bind DRD1

## CC(C)(N)C(=O)N[C@@H](Cc1c[nH]cn1)C(=O)N[C@H](Cc1ccc2ccccc2c1)C(=O)N[C@H](Cc1ccccc1)C(=O)N[C@@H](CCCCN)C(N)=O [ipamorelin] (H-[Aib]H[d2Nal][dF]K-NH2)
Hippocampal neurons; oligomeric Aβ42 1 μM, 24 hours
  Aβ-induced synaptic loss / synaptic density: could ameliorate
Hippocampal neurons; without oligomeric Aβ42
  synaptogenic effect, agonist alone: comparable synaptogenic effect with ghrelin

## CN1N=C2CCN(C(=O)[C@@H](COCc3ccccc3)NC(=O)C(C)(C)N)C[C@@]2(Cc2ccccc2)C1=O [capromorelin]
Hippocampal neurons; oligomeric Aβ42 1 μM, 24 hours
  Aβ-induced synaptic loss / synaptic density: could ameliorate
Hippocampal neurons; without oligomeric Aβ42
  synaptogenic effect, agonist alone: comparable synaptogenic effect with ghrelin

## Oc1cc2c(c(Cl)c1O)CCNCC2c1ccccc1 (stereo not shown) [SKF81297]
Ghsr1α/Drd1 complex
  Ghsr1α/Drd1 complex formation: not the agonists alone
[4]; slices from 4 month-old 5×FAD mice
  stimulus-evoked hippocampal LTP in 5×FAD slices: no effect
[4]; slices from 4 month-old non-Tg mice
  hippocampal LTP in non-Tg slices: no effect
Aβ/Ghsr1α complex
  Aβ/Ghsr1α complex formation: not MK0677 or SKF81297 alone
Hippocampal neurons; oligomeric Aβ42 1 μM, 24 hours, 1.5 μM MK0677, 2 μM SKF81297, or in combination
  synaptic density / oligomeric Aβ42-induced synapse loss: failed to alleviate
Hippocampal neurons; without oligomeric Aβ42, MK0677 at doses greater than 1.5 μM, SKF81297 2 μM
  synaptic density, agonist alone: increased synaptic density
